Assay results published in the supplement of paper PMC11208160.

Assay: recombinant barcode read abundance after kanamycin selection (control-corrected) (log10(CPM+1)); higher = more efficient recombination; sequences stand for … in AGTGCAGAGAAAATCGGCCAGTTTTCTCTGCCTGCAGTCCGCATGCCGT…AGATTTATGCAGCGGACTGCCTTTCTCCCAAAGTGATAAACCGGACAGTATCATGGACCGGTTTTCCCGGTAATCCGTATTTGCAAGGTTGGTTTCACT; site = the 11-nt target
How it was run: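 Two replicates per condition were plated: chloramphenicol/ampicillin LB agar for the control, and chloramphenicol/ampicillin/kanamycin with 0.1 mM IPTG for selection. The pooled E. coli screen behind them paired targets with IS621 bridge RNA target-binding loops. Recombination efficiency is expressed from averaged, control-corrected barcode counts per million at recombinant junctions, as log10(CPM+1).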
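Further: IS621 recombinase and bridge RNA in Escherichia coli cells.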

Row | Sequence | recombinant barcode read abundance (log10)
1 | TAGGCCACTTGGGTTCTAACCTGTTGCTT (site TAGGCCACTAC) | 1.17
2 | CGTTCAACTTGGGTTCTAACCTGTTGCCT (site CGTTCTACTAG) | 0.0864
3 | CGAAGATCTTGGGTTCTAACCTGTTGCCT (site CCAAGATCTAG) | 0
4 | TAGCACCCTTGGGTTCTAACCTGTTGCCA (site TAGCACCCTTG) | 0.965
5 | CCTGTATCTTGGGTTCTAACCTGTTGCCT (site CCTGTATCTAG) | 0.127
6 | GCGCGGCCTTGGGTTCTAACCTGTTGCTT (site GCGCGGCCTAA) | 0.492
7 | TGTCGGACTTGGGTTCTAACCTGTTGCAA (site TGTCGGACTCT) | 0.149
8 | GCGGGATCTTGGGTTCTAACCTGTTGCCT (site GCGGGATCTAG) | 1.06
9 | AGGAAGGCTTGGGTTCTAACCTGTTGCCA (site AGGAAGGCTTG) | 0.693
10 | CGACTTACTTGGGTTCTAACCTGTTGCAT (site CGACTTACTAT) | 0.0348
11 | ATAACGGCTTGGGTTCTAACCTGTTGCCT (site GACGGACCTTA) | 0.0648
12 | GAGCTGCCTTGGGTTCTAACCTGTTGCCA (site AGCTAATCTAA) | 0.274
13 | AACTGGGCTTGGGTTCTAACCTGTTGCCT (site AGCTGGGCTAG) | 0.0923
14 | AGTTTCACTTGGGTTCTAACCTGTTGCCT (site AGTTTCACTAG) | 0.0755
15 | AGCGAATCTTGGGTTCTAACCTGTTGCCT (site AGCGAATCTAG) | 0.719
16 | CTAGGAGCTTGGGTTCTAACCTGTTGCCT (site CTAGGAGCTAG) | 0.148
17 | GGGGAGCCTTGGGTTCTAACCTGTTGCGG (site GGGGATCCTTC) | 0.335
18 | ACTTGGCCTTGGGTTCTAACCTGTTGCTG (site ACGTGGCCTCA) | 0.111
19 | TATGCGGCTTGGGTTCTAACCTGTTGCCT (site TATGCGGCTAG) | 0.34
20 | CCAAGGGCTTGGGTTCTAACCTGTTGCAG (site CCAAGGGCTCG) | 0.537
21 | CAATATCCTTGGGTTCTAACCTGTTGCCT (site CAATATCCTAG) | 1.09
22 | TGCTAGGCTTGGGTTCTAACCTGTTGCCT (site TGTCAGGCTAG) | 0.0576

Row | Sequence | recombinant barcode read abundance (log10)
23 | TGTGCTCCTTGGGTTCTAACCTGTTGCAG (site TGTGCTCCTCT) | 0.113
24 | ATACGGACTTGGGTTCTAACCTGTTGCTA (site ATAAGGACTTA) | 0.0991
25 | GCGACTCCTTGGGTTCTAACCTGTTGCAT (site GCGCCTCCTAT) | 0.118
26 | ACGATATCTTGGGTTCTAACCTGTTGCCT (site AAGATATCTAG) | 0.181
27 | AGGAGCCCTTGGGTTCTAACCTGTTGCTA (site AGGAGCCCTGA) | 0.0798
28 | CACACTACTTGGGTTCTAACCTGTTGCTT (site CACACTACTAA) | 0.0581
29 | GTCTGTTCTTGGGTTCTAACCTGTTGCCT (site GACTGTTCTAG) | 0.17
30 | GTGAGAGCTTGGGTTCTAACCTGTTGCGG (site GTGAGAGCTCC) | 1.43
31 | GCGTCACCTTGGGTTCTAACCTGTTGCCT (site CCGTCACCTAG) | 0.0376
32 | GGACGACCTTGGGTTCTAACCTGTTGCCT (site GGACGCCCTAG) | 0.102
33 | GAGACTCCTTGGGTTCTAACCTGTTGCAG (site GAGACTCCTCT) | 0.956
34 | GTGATCCCTTGGGTTCTAACCTGTTGCCT (site GTGATCCCTAG) | 1.18
35 | TAGAACACTTGGGTTCTAACCTGTTGCTG (site TAGAACACTCA) | 1
36 | TTACCCACTTGGGTTCTAACCTGTTGCCT (site TTACCGACTAG) | 0.0929
37 | AGATCTCCTTGGGTTCTAACCTGTTGCCT (site AGAGCTCCTCG) | 0.231
38 | CATGAGCCTTGGGTTCTAACCTGTTGCCT (site CATTAGCCTAG) | 0.196
39 | GTTAGAGCTTGGGTTCTAACCTGTTGCCT (site GTTGGAGCTAG) | 0.0737
40 | GAAACTGCTTGGGTTCTAACCTGTTGCCT (site GACACTGCTAG) | 0.211
41 | AATGGGACTTGGGTTCTAACCTGTTGCCT (site AATGGGCCTAG) | 0.171
42 | GCCGAAACTTGGGTTCTAACCTGTTGCCT (site GCCGAAACTAG) | 0.0181
43 | AGGAACACTTGGGTTCTAACCTGTTGCTT (site AGGAACACTCA) | 0.279
44 | ACATGAACTTGGGTTCTAACCTGTTGCCT (site ACCTGAACTAG) | 0.0918

Row | Sequence | recombinant barcode read abundance (log10)
45 | GTCTGTTCTTGGGTTCTAACCTGTTGCCT (site GTCTGTTCTAG) | 0.852
46 | GAGAAATCTTGGGTTCTAACCTGTTGCCT (site GAGATATCTAG) | 0.0612
47 | ATATGTACTTGGGTTCTAACCTGTTGCCG (site ATATGTACTTG) | 0.167
48 | GAAGTCCCTTGGGTTCTAACCTGTTGCCT (site CAAGTCCCTAG) | 0.848
49 | CTGCCCTCTTGGGTTCTAACCTGTTGCCT (site CTGCCCTCTAG) | 1.74
50 | TAACTTACTTGGGTTCTAACCTGTTGCAT (site TAACATACTAT) | 0.179
51 | TACGCTCCTTGGGTTCTAACCTGTTGCCT (site TACGCTCCTAT) | 0.452
52 | AACTTCGCTTGGGTTCTAACCTGTTGCCT (site AACTTCCCTAG) | 0.00931
53 | AACACGTCTTGGGTTCTAACCTGTTGCCT (site AACACGTCTAG) | 0.576
54 | CTAGGAGCTTGGGTTCTAACCTGTTGCCT (site CTAGGACCTTG) | 0.0183
55 | GTGCCTGCTTGGGTTCTAACCTGTTGCCT (site GTGCCTGCTAG) | 1.05
56 | TATTCTCCTTGGGTTCTAACCTGTTGCGT (site TATTCTCCTAC) | 0.243
57 | GTGGGCTCTTGGGTTCTAACCTGTTGCCT (site GTGGGCTCTAG) | 2.01
58 | ACCTACCCTTGGGTTCTAACCTGTTGCGG (site CGAACATCTAA) | 0.169
59 | TTGAGGACTTGGGTTCTAACCTGTTGCCT (site TTGAGGACTAG) | 0.606
60 | TTATGGGCTTGGGTTCTAACCTGTTGCCG (site TCCTGGGCTCG) | 0.114
61 | GAGATATCTTGGGTTCTAACCTGTTGCCT (site GAGAGATCTAG) | 0.217
62 | GCAAGGCCTTGGGTTCTAACCTGTTGCCT (site CCAAGGCCTAG) | 0.721
63 | CGGGGAGCTTGGGTTCTAACCTGTTGCCG (site CGGGGAGCTCG) | 0.761
64 | GATTCTCCTTGGGTTCTAACCTGTTGCAT (site GATTCTCCTAC) | 0.143
65 | GAGGTGCCTTGGGTTCTAACCTGTTGCAG (site ATAACCTCTAG) | 0.174
66 | TCAATAGCTTGGGTTCTAACCTGTTGCAC (site TCAATAGCTGT) | 1.28

Row | Sequence | recombinant barcode read abundance (log10)
67 | TCCGGAGCTTGGGTTCTAACCTGTTGCCG (site TCCGGAGCTCG) | 0.652
68 | CTCGGAGCTTGGGTTCTAACCTGTTGCCT (site CTCGGAGCTAG) | 1.04
69 | ACCTGTGCTTGGGTTCTAACCTGTTGCCT (site ACCTGTGCTAG) | 0.874
70 | GAGGAACCTTGGGTTCTAACCTGTTGCCT (site AAGGAACCTAG) | 1.57
71 | CACTTGCCTTGGGTTCTAACCTGTTGCCT (site CACTTGACTAG) | 0.0347
72 | GGGTCCACTTGGGTTCTAACCTGTTGCCT (site GGGTCCACTAT) | 0.358
73 | GGCTCCTCTTGGGTTCTAACCTGTTGCCT (site GGCTCCTCTAG) | 0.733
74 | GATTCTCCTTGGGTTCTAACCTGTTGCAT (site GATTCTCCTAG) | 0.0815
75 | GTACAAGCTTGGGTTCTAACCTGTTGCCT (site AGGAGTCCTCT) | 0.102
76 | AGCGACCCTTGGGTTCTAACCTGTTGCGT (site CGCGATCCTAC) | 0.16
77 | GATGGTACTTGGGTTCTAACCTGTTGCAT (site GATGGTACTAT) | 1.46
78 | GTCTCACCTTGGGTTCTAACCTGTTGCGG (site GTCTCACCTCC) | 0.91
79 | TTGAGGCCTTGGGTTCTAACCTGTTGCGG (site TTGAGGCCTCC) | 2.39
80 | TAGTACCCTTGGGTTCTAACCTGTTGCAC (site TAGTACCCTAT) | 0.169
81 | GTCTACGCTTGGGTTCTAACCTGTTGCCA (site GTCTAAGCTCG) | 0.0189
82 | GATACGACTTGGGTTCTAACCTGTTGCCT (site GATACGGCTAG) | 0.0662
83 | GAGTGAGCTTGGGTTCTAACCTGTTGCGT (site GAGTGAGCTAC) | 3
84 | GCCGTCCCTTGGGTTCTAACCTGTTGCTA (site GTCGTCCCTTG) | 0.106
85 | ACGATTCCTTGGGTTCTAACCTGTTGCCT (site ATGATTCCTAG) | 0.0978
86 | AGCGAGTCTTGGGTTCTAACCTGTTGCCT (site AGCGAGTCTAG) | 2.08
